Results: PMC12915296 (Journal of medicinal chemistry, 2025)
Read-outs that look alike come from different tables or passages of the source.

Tests used:
[1] = molecular target: rCB1 receptor (Rattus norvegicus, UniProt P20272); experiment: rCB1 radioligand binding assay, [3H]CP-55,940 competition; settings: for increase in binding affinity for CB1 compared to lead AMG315: ratio of Ki values
[2] = molecular target: T1, hCB2 receptor (Homo sapiens, UniProt P34972); experiment: hCB2 radioligand binding assay, [3H]CP-55,940 competition, HEK293 membranes; settings: for higher affinity for CB2 than the lead compound AMG315: ratio of Ki values
T1 sequence (P34972 whole entry): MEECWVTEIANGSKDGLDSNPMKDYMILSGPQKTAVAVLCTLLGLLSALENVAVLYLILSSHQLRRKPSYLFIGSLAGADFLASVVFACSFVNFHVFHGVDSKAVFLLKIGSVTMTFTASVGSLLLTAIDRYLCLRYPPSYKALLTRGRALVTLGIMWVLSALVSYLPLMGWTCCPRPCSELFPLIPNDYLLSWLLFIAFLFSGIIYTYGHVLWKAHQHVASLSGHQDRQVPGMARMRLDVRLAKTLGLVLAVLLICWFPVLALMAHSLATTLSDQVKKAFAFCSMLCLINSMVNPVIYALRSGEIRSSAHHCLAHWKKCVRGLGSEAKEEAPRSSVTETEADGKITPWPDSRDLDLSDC

[3] = molecular target: T2, hCB1 receptor (Homo sapiens, UniProt P21554); experiment: cell-based; settings: for Emax: read-out: hCB1 receptor cAMP Emax, normalized to maximum CP-55,940 = 100
T2 sequence (P21554 whole entry): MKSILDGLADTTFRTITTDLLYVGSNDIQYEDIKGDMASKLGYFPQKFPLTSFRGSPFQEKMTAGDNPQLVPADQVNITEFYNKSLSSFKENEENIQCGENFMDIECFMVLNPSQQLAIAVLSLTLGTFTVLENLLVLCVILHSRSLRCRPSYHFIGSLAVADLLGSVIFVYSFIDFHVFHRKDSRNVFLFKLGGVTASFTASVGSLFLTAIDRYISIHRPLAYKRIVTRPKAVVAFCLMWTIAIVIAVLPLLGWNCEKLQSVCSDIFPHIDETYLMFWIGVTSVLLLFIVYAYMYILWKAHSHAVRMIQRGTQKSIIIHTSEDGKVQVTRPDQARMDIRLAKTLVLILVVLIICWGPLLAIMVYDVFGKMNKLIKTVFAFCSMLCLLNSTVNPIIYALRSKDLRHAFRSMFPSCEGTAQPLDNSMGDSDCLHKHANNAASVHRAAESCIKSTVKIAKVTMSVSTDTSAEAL

[4] = molecular target: T2, hCB1 receptor; experiment: cell-based; settings: read-out: hCB1 receptor β-Arrestin 2 Emax
[5] = molecular target: T1, hCB2 receptor; experiment: Inhibition of forskolin-stimulated cAMP accumulation, 3xHA-hCB2-CHO cells; assay type: cell-based; settings: for Emax: read-out: hCB2 receptor cAMP Emax
[6] = molecular target: T1, hCB2 receptor; experiment: β-arrestin 2 recruitment assay; assay type: cell-based; settings: for Emax: read-out: hCB2 receptor β-Arrestin 2 Emax
[7] = test system: Adult male CD1 mice; experiment: Ring test for catalepsy; assay type: in vivo; settings: for immobility time in the ring test vs vehicle: i.p., mice, overall
[8] = test system: Adult male CD1 mice; experiment: Measurement of rectal temperature; assay type: in vivo; settings: for body temperature vs vehicle: i.p., mice
[9] = test system: Adult male CD1 mice; experiment: Tail-flick; assay type: in vivo; settings: for tail-flick latency in the tail-immersion test vs vehicle: mice, overall
[10] = test system: Adult male CD1 mice; experiment: CFA-induced inflammatory pain model, mechanical paw withdrawal thresholds; assay type: in vivo; settings: AM251 5 mg/kg i.p. alone, overall

rCB1 receptor, sequence (P20272 whole entry): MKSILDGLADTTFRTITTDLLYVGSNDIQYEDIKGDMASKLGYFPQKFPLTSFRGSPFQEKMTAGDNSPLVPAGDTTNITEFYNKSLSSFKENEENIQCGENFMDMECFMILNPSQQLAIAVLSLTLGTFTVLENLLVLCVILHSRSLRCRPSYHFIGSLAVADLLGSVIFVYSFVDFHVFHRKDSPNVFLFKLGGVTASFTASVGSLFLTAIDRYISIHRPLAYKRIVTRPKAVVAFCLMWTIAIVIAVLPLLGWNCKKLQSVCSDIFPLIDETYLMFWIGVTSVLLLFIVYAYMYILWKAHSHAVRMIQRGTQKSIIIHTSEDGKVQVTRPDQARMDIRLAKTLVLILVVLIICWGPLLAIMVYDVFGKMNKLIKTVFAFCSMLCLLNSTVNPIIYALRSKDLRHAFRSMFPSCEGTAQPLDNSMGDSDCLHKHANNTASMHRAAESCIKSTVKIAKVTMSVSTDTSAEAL

## C[C@H](/C=C\C/C=C\C/C=C\CCCC(=O)N[C@H](C)CO)/C=C\CCCCCF [Compound 21, (S,5Z,8Z,11Z,14Z)-20-Fluoro-N-((R)-1-hydroxypropan-2-yl)-13-methylicosa-5,8,11,14-tetraenamide]
[1]
  Ki: 4.2 nM
  increase in binding affinity for CB1 compared to lead AMG315: 2–7 fold
[2]
  Ki: 22.2 nM

## C[C@H](/C=C\C/C=C\C/C=C\CCCC(=O)N[C@H](C)CO)/C=C\CCCCCO[N+](=O)[O-] [Compound 16b, (S,6Z,9Z,12Z,15Z)-20-(((R)-1-Hydroxypropan-2-yl)amino)-8-methyl-20-oxoicosa-6,9,12,15-tetraen-1-yl Nitrate]
[1]
  Ki: 1.7 nM
  increase in binding affinity for CB1 compared to lead AMG315: 2–7 fold
[2]
  Ki: 10.9 nM

## C[C@H](/C=C\C/C=C\C/C=C\CCCC(=O)N[C@H](C)CO)/C=C\CCCCCBr [Compound 15, (S,5Z,8Z,11Z,14Z)-20-Bromo-N-((R)-1-hydroxypropan-2-yl)-13-methylicosa-5,8,11,14-tetraenamide]
[1]
  Ki: 1.1 nM
  increase in binding affinity for CB1 compared to lead AMG315: 2–7 fold
[2]
  Ki: 5.3 nM

## CCCCC/C=C\[C@H](C)/C=C\C/C=C\C/C=C\CCCC(=O)N[C@H](C)CO [AMG315, (R)-N-(1-Methyl-2-hydroxyethyl)-13-(S)-methyl-arachidonamide, reference compound]
[3]
  Emax: 80.5%
[4]
  Emax: 38%
[5]
  Emax: 18%
[6]
  Emax: 36%

## Cc1c(C(=O)NN2CCCCC2)nn(-c2ccc(Cl)cc2Cl)c1-c1ccc(I)cc1 [AM251, 1-(2,4-dichlorophenyl)-5-(4-iodophenyl)-4-methyl-N-1-piperidinyl-1H-pyrazole-3-carboxamide, reference compound]
[7]; AM251 5 mg/kg ip before AM12814 1 mg/kg ip
  effect of pretreatment on AM12814-induced catalepsy in the ring test: blocked
[8]; AM251 5 mg/kg i.p. before AM12814 1 mg/kg i.p.
  effect of pretreatment on hypothermic effect of AM12814: abolished
[9]; AM251 5 mg/kg i.p. before AM12814 3 mg/kg i.p.
  effect of pretreatment on tail-flick antinociception of AM12814: reduced the overall antinociceptive efficacy
[10]
  ipsilateral paw withdrawal thresholds, AM251-Veh vs Veh–Veh: modestly elevated

## C[C@H](/C=C\C/C=C\C/C=C\CCCC(=O)N[C@H](C)CO)/C=C\CCCCC(F)(F)F [Compound 12, (S,5Z,8Z,11Z,14Z)-20,20,20-Trifluoro-N-((R)-1-hydroxypropan-2-yl)-13-methylicosa-5,8,11,14-tetraenamide]
[1]
  Ki: 0.7 nM
  increase in binding affinity for CB1 compared to lead AMG315: 10 fold
[2]
  Ki: 3.4 nM
  higher affinity for CB2 than the lead compound AMG315: 52–80 fold
[3]; Emax cAMP vs Emax β-arrestin 2
  efficacy for the cyclase pathway relative to β-arrestin 2 recruitment in CB1: 3 fold
[3]; normalized to maximum CP-55,940 = 100
  hCB1 receptor cAMP Emax: 67.5%
[3]
  Emax: 67%
[4]
  Emax: 22%
[5]
  EC50: 22 nM
  Emax: 29%
[6]
  EC50: 5.6 nM
  Emax: 28%
[7]; 0.3 mg/kg
  immobility time in the ring test vs vehicle: did not differ reliably from vehicle overall
[7]; 1 mg/kg
  immobility time in the ring test vs vehicle: increased immobility time
[7]; 3 mg/kg
  immobility time in the ring test vs vehicle: increased immobility time
[8]; 0.3 mg/kg
  body temperature vs vehicle: did not alter body temperature at any postinjection time point
[8]; 1 mg/kg
  body temperature vs vehicle: reducing body temperature
[8]; 3 mg/kg
  body temperature vs vehicle: reducing body temperature
[8]; 1 or 3 mg/kg
  earliest time of reduced body temperature postinjection: 10 min
[9]; 1 mg/kg, i.p.
  tail-flick latency in the tail-immersion test vs vehicle: increased tail-flick latency
[9]; 3 mg/kg, i.p.
  tail-flick latency in the tail-immersion test vs vehicle: increased tail-flick latency
[9]; low dose, 0.1 mg/kg i.p.
  tail-flick latency in the tail-immersion test vs vehicle: increased tail-flick latency

## CCCCC/C=C\C/C=C\C/C=C\C/C=C\CCCC(=O)NCCO [AEA, N-arachidonoylethanolamide, reference compound]
[5]
  Emax: 27%
[6]
  Emax: 36%

## C[C@H](/C=C\C/C=C\C/C=C\CCCC(=O)N[C@H](C)CO)/C=C\CCCCCC#N [Compound 16a, (S,5Z,8Z,11Z,14Z)-20-Cyano-N-((R)-1-hydroxypropan-2-yl)-13-methylicosa-5,8,11,14-tetraenamide]
[1]
  Ki: 1.4 nM
  increase in binding affinity for CB1 compared to lead AMG315: 2–7 fold
[2]
  Ki: 2.2 nM
  higher affinity for CB2 than the lead compound AMG315: 52–80 fold

## C[C@H](/C=C\C/C=C\C/C=C\CCCC(=O)N[C@H](C)CO)/C=C\CCCCCO [Compound 18, (S,5Z,8Z,11Z,14Z)-20-Hydroxy-N-((R)-1-hydroxypropan-2-yl)-13-methylicosa-5,8,11,14-tetraenamide]
[1]; read-out: rCB1 receptor Ki, rat brain membranes, [3H]CP-55,940, (± 95% CI)
  Ki: 29 nM
